# Measurements: patent US20050059639A1, “Ophthalmic compositions and method for treating eye discomfort and pain” (priority 2003, published 2005)
# Marks after values point to notes of the source that are not given here.
# Tests used:
# [1] = test system: tongue of human volunteers; assay: Cooling sensations when applied to the tongue of human volunteers; type: in vivo; conditions: for Duration of Action: duration of the cooling action on the tongue; for Relative Potency: reciprocal of threshold, normalized to unity for analogs with 1.25 μg/ml; for Threshold: threshold for producing cooling sensations on the tongue of human volunteers
# Experimental: (§1) The therapeutic concentrations of the preferred analogs are in the range of 10 to 80 μg/ml […], but concentrations as low as 0.1 μg/ml may elicit effects in sensitive individuals.
# [2] = test system: medial canthus of the eyelids; assay: Sensory quality of the solution on the medial canthus of the eyelids / eye surface; type: in vivo, human; conditions: solution applied on the medial canthus of the eyelids
# Description: [table] In selecting a particular analog, it is desirable to have one that has a long duration of action (several hours) and minimal stinging and burning sensations. These parameters are not predicted by the cooling effect of these substances on the human tongue, but must be determined by experiment. […] Thus, the hexyl analog is the preferred therapeutic of the two. The other particularly preferred analogs that have the desired qualities of long duration of action and absence of stinging and burning effects are identified with an asterisk in Table 1.
# eye disorders = assay: Estimate of ideal therapeutic eye drop concentration to relieve eye disorders; type: in vivo, human; conditions: estimate of ideal therapeutic concentration applied as eye drops to relieve eye disorders
# Experimental: as §1
# The potency of certain specific trialkyl phosphine oxides, e.g. isopropyl, sec-butyl, n-octyl-phosphine oxide, in relieving eye discomfort is exceptionally high, on the order of 0.001%. In such situations, an alternative preferred description of an effective unit dose is 0.01 mg/ml or 10 μg/ml, which is equivalent to 0.001% weight percent.
# conjunctivitis = assay: Eye drops in subjects with allergic conjunctivitis; type: in vivo, human; conditions: for stinging sensations: 0.1% solution, medial canthus/closed eye, about every 8 hours
# Description: A subject, suffered from seasonal allergy. During the months of March through May, they would wake up in the morning sneezing, with a runny nose, and itchy eyes. The rhinitis, nasal congestion and obstruction were relieved to some extent by taking a Claritin® antihistamine tablet, but the symptoms of itchy, tearing, and red eyes were not. This individual applied, by the medial canthus/closed eye method in which they had been instructed, several drops of a 0.1% solution disec-butyl-n-pentyl-phosphine oxide ophthalmic eye drop solution, into each eye about every 8 hours for two days. […] They felt more clear-sighted and vigilant, and was of the opinion that the eye drops had therapeutic value for their conjunctivitis. Similar results were obtained with 3 additional subjects suffering from ocular allergies. A subject, suffered from perennial rhinitis that was aggravated by sinusitis, nasal surgery, and a prolonged course of antibiotics. They developed a generalized allergic condition with severe itchy rash on their back, dermatitis on their face (especially on their cheeks), and had itchy, puffy and red eyes. This individual applied, by the medial canthus/closed eye method in which they had been instructed, several drops of a 0.1% solution disec-butyl-pentyl-phosphine oxide ophthalmic solution into each eye for about every 8 hours for three days. […] The subject was of the opinion that the eye drops had therapeutic value for their conjunctivitis.
# [3] = test system: opened eyes of volunteers; assay: Eye drops applied directly to the opened eyes of volunteers; type: in vivo, human
# Experimental: (§2) For trialkyl phosphine oxide eye drop solutions of this invention, I have discovered an indirect method of application as follows. The eye dropper is aimed at the medial canthus (nasal corner) of the eye, the eye is then closed, the dispenser is squeezed to emit the eye drops, and the eye kept closed for about 1 min. This method of application can substantially avoid stinging and burning sensations. Apparently, the adaptation period of about 1 min allows the sensory processes to develop tolerance to the initial stinging and burning stimuli. For example, if a 0.4 mg/ml solution of disec-butyl, n-hexyl-phosphine oxide [synonym, 1-(Di-sec-butyl-phosphinoyl)-hexane] in isotonic-buffered saline is dropped on the open eye, it causes stinging and burning for about 1 min. However, applied onto the corners of the eye, with the eyes closed for 1 min, these stinging and burning sensations are avoided. The medial canthus is preferred to the lateral canthus because the geometry of the orbit permits a longer residence time for the eye drop applied to the medial corner. Drops applied to the lateral canthus are less precisely located and rapidly dribble off the zygoma (cheekbone). A user can be instructed in this indirect method by including the instructions on packaging labels and/or inserts associated with the doses.
# A 0.05% (0.5 mg/ml) disec-butyl-n-hexyl-phosphine oxide eye drop solution was prepared by adding the compound to an isotonic solution of sodium chloride, 0.65% in deionized water, monobasic potassium phosphate/sodium hydroxide buffer, preserved with disodium EDTA and benzalkonium chloride. The liquid was individually aliquoted into a ¼ oz. bottle with a Yorker spout (E.D. Luce Packaging) suitable for droplet delivery. This solution was applied to the opened eyes of three volunteers, with two to three drops of the solution applied to each eye. The subjects complained of stinging and burning sensations on the eye surface, lasting for about 2 min and requiring the subjects to shut their eyes. […]
# [4] = test system: closed eyes of volunteers; assay: Eye drops applied to medial canthus of closed eyes, kept closed about 1 min; type: in vivo, human
# Experimental: as §2
# The solution, as in Example 1, was then used by another three subjects with the instruction to apply the droplets to the nasal corner of the eye (medial canthus), without touching the tip of the dispenser to the eyelid surface, to let the solution seep into the eyelids and eye surface but to keep eyes closed for at least one minute. The subjects reported slight sensations of stinging when the eyes were opened, effects that lasted for less than 1 minute, followed by sensations of coolness and comfort lasting at least two hours. The experiment was then repeated, but with a higher concentration of 0.2% of disec-butyl-n-hexyl-phosphine oxide.
# A 0.2% (2.0 mg/ml) disec-butyl-n-heptyl-phosphine oxide eye drop solution was prepared by adding the compound to an isotonic solution of sodium chloride, 0.65% in deionized water, monobasic potassium phosphate/sodium hydroxide buffer, preserved with disodium EDTA and benzalkonium chloride. The liquid was individually aliquoted into a ¼ oz. bottle with a Yorker spout (E.D. Luce Packaging) suitable for droplet delivery. This solution was then applied to the closed eyes of three volunteers, with two to three drops of the solution applied to each eye. The subjects complained of stinging and burning sensations on the eye surface, lasting for about 2 min. A series of six solutions were then prepared in which six different hydrocarbon polyols were added to the parent 0.2% solution. The individual additions were 1.5% sucrose, 1.5% fructose, 1.5% dextrose, 1.5% lactose, 1.5% inositol, or 0.5% carboxymethylcellulose. […] There was some tearing, but no evidence of increased eye redness from the hydrocarbon polyols and subjective complaints of discomfort were minimal.
# skin of upper eyes = assay: Application to skin of the upper eyes by swabstick (eye strain, contact lens user); type: in vivo, human
# Experimental: Another modification of drug delivery was discovered. […] Example 4 notes that topical application of a 5% solution of a trialkyl phosphine oxide dissolved in pure propylene glycol produces robust cooling when applied in this manner.
# A subject was stuck in traffic for over 2 hours on a hot and sunny (95° to 97° F.) day in an old car without air-conditioning. They were a user of soft contact lenses. […] They wanted to go on-line to work on a database project, but their eyestrain hindered their ability to focus. They volunteered to apply onto the skin of their upper eyes a 5% solution of disec-butyl-n-hexyl-phosphine oxide dissolved in 100% propylene glycol. A cotton swabstick was used to dab the solution onto the surfaces of the skin with extra care not touch the margins of the eyelids or eye surface. After drug application, a robust cooling sensation developed in the eyes that lasted for about 3 hours. […] They also reported that they felt more alert and energetic.
# dry eyes = assay: Eye drops in contact lens user with dry eyes; type: in vivo, human; conditions: 0.2% solution with 0.5% carboxymethylcellulose
# Description: The subject of example 4 is a daily user of disposable soft contact lenses, has “dry eyes”, and is a constant user of Refresh Eyes®, an artificial tears solution with 0.5% carboxymethylcellulose stored in a unit dispenser. They were instructed on how to instill the eye drops into the nasal corner (medial canthus) of their closed eyes and how to avoid the initial discomforts of the solution. The subject, who is an internationally-ranked tennis player, volunteered to self-administer, by the medial canthus/closed eye method, a 0.2% solution disec-butyl-n-hexyl-phosphine oxide ophthalmic solution containing 0.5% carboxymethylcellulose.
# ocular pain = assay: Eye drops for ocular pain after refractive eye surgery (LASIK); type: in vivo, human
# Description: A subject, underwent bilateral refractive eye surgery (LASIK) for myopia in order to maintain their qualifications for special duties in the military. On the first day after surgery their eye surfaces and eyelids were bright red from dilated and enlarged blood vessels, but there was little pain. However, on the second day, the individual suffered excruciating pain from their eyes that was incapacitating and prevented them from going to work. This individual volunteered to apply eye drops of a 0.05% solution disec-butyl-n-hexyl-phosphine oxide ophthalamic into each eye for about every 6 hours for three days. They were instructed on how to instill the eye drops into the nasal corner (medial canthus) of their closed eyes and how to avoid the initial discomforts of the solution. […] They felt much better and was of the opinion that the eye drops had therapeutic value for ocular pain.
# [5] = 0.1% solution every 8 hours for two days, seasonal allergy
# [6] = 0.2% solution, medial canthus/closed eye
smiles,measurement,setting,value
"CCCCCP(=O)(C(C)CC)C(C)CC (stereo not shown) [n-C5H11 / sec-C4H9 / sec-C4H9, disec-butyl-n-pentyl-phosphine oxide]",Duration of Action,[1],10 min
same,Relative Potency,[1],1
same,Threshold,[1],1.25 µg/mL
same,Sensory Quality,[2],cool only
same,Eye Therapy,eye disorders,60* μg/ml
same,effect on eye discomfort,"conjunctivitis; 0.1% solution every 8 hours for three days, generalized allergic condition",relief of discomfort
same,itching,conjunctivitis; [5],substantially reduced
same,redness,conjunctivitis; [5],diminished
same,stinging sensations,conjunctivitis,initial mild sensation of “stinging”
same,stinging sensations,conjunctivitis; listed as disec-butyl-pentyl-phosphine oxide,No significant stinging sensations
"CCCCCCP(=O)(C(C)CC)C(C)CC (stereo not shown) [n-C6H13 / sec-C4H9 / sec-C4H9, 1-(Di-sec-butyl-phosphinoyl)-hexane]",Duration of Action,[1],20 min
same,potency on the human tongue (comparison of the two analogs),[1]; hexyl vs heptyl analog,about equipotent
same,Relative Potency,[1],1
same,Threshold,[1],1.25 µg/mL
same,Sensory Quality,[2],cool/sting
same,Eye Therapy,eye disorders,45 µg/mL
same,duration of stinging and burning,[3]; 0.4 mg/ml in isotonic-buffered saline dropped on the open eye,about 1 min
same,duration of stinging and burning sensations on the eye surface,"[3]; 0.05% (0.5 mg/ml) solution, 2-3 drops, opened eyes, three volunteers",about 2 min
same,redness / vasodilatation on eye surface or eyelids,"[3]; 0.05% solution, opened eyes",no evidence of increased redness
same,stinging and burning sensations,"[4]; 0.4 mg/ml applied onto corners of the eye, eyes closed for 1 min",avoided
same,duration of slight stinging when eyes were opened,"[4]; 0.05% solution, medial canthus, eyes closed at least one minute, three subjects",less than 1 minute
same,duration of sensations of coolness and comfort,"[4]; 0.05% solution, medial canthus/closed eye",at least two
same,sensations of stinging and burning vs 0.05%,[4]; [6],slightly increased
same,"tearing, irritation or redness",[4]; [6],"no signs of tearing was observed, nor of signs of irritation or redness"
same,duration of robust cooling sensation in the eyes,"skin of upper eyes; 5% solution in 100% propylene glycol dabbed on skin of upper eyes, one subject",about 3 hours
same,"effect on eye fatigue, irritation and discomfort",skin of upper eyes; 5% solution in 100% propylene glycol on skin of upper eyes,"alleviated their sense of eye fatigue, irritation, and discomfort"
same,effect on eye dryness (subject's opinion),dry eyes,useful to alleviate eye dryness
same,tearing,dry eyes,no increased tearing
same,reported sensations,"dry eyes; medial canthus/closed eye, one subject",slight tingling in their eyelids followed by refreshing sensations in their eyelids and eye surface
same,adverse effects,ocular pain; 0.05% solution about every 6 hours for three days after LASIK,no significant adverse effects
same,acute pain from the eye surface,"ocular pain; 0.05% solution about every 6 hours for three days, second day after LASIK, medial canthus/closed eye",significantly diminished within minutes
